Article PMC10671360, “In Silico and In Vitro Study towards the Rational Design of 4,4′-Disarylbisthiazoles as a Selective α-Synucleinopathy Biomarker” (International Journal of Molecular Sciences, 2023)

Key:
[1] = biological target: T1, tau fibrils (Homo sapiens, UniProt P10636); assay: Competition binding assay against [^3H]DCVJ, tau fibrils; conditions: [^3H]DCVJ was used (20 nM); tau aggregates 125 nM
Procedure: (§1) Recombinant tau monomer (R&D systems, Minneapolis, MN, USA) was dissolved in 20 mM of Tris HCl, pH 8.0, 100 mM of NaCl, 25 μM of low-MW heparin, and 0.5 mM of dithiothreitol to a final concentration of 300 µg/mL. The mixture was incubated with shaking at 900 rpm at 37 °C for 48 h. To separate the non-aggregated monomers from the formed fibrils, the reaction mixture was centrifuged at 12,000× g for 5 min, and the resulting pellet was washed three times with 500 μL of 20 mM Tris-HCl, pH 7.4. The supernatants from the three centrifugation steps were combined, and the concentration of the monomer in the resulting supernatant was determined in a BCA assay(Thermo Fisher Scientific, Waltham, MA, USA) (with a BSA standard curve). Determination of the concentration of fibrils formed was carried out by subtracting the amount of tau peptide monomer in the supernatant from the initial amount used for fibrillation. The pellets of the fibrils obtained above (Section 4.2.1) were resuspended in 20 mM of Tris-HCl, pH 7.4 and diluted as needed for the binding assays. A fixed concentration of [^3H]DCVJ (10 nM) and α-synuclein aggregates (125 nM), prepared as described above (Section 4.2.3), was used with different final concentrations of the DABTAs from 0.01 to 100 nM (see SI Figure S1). The experiment was carried out in quintuplicate for each concentration. The mixture was incubated for 2 h in a final volume of 200 μL per well after dilution with 20 mM of Tris-HCl, pH 7.4. The incubated mixtures were filtered through a Perkin Elmer GF/B glass filter via a TOMTEC cell harvester and immediately washed thrice with 1 mL of deionized water. The filters containing the bound ligands were dried and afterwards mixed with 3 mL of BetaPlate Scint solution (Perkin Elmer Life Sciences, Waltham, MA, USA) and left there for 2 h before counting in a Wallac 1450 MicroBeta TriLux Liquid Scintillation Counter (PerkinElmer Life Sciences, Waltham, MA, USA). For the determination of the inhibition constants, data were analyzed using GraphPad Prism software (version 7.0) to obtain IC50 values by fitting the data to the equation Y = bottom + (top − bottom)/(1 + 10(x − log IC50)). Ki values were calculated from IC50 values using the equation Ki = IC50/(1 + [radioligand]/Kd). […] Further protocol was carried out as for [^3H]DCVJ (see SI Figure S3). Fixed concentrations (125 nM) of Aβ1−42, tau aggregates, and [^3H]DCVJ (10 nM and 20 nM for the Aβ1−42 and tau competition experiments respectively) were used with different concentrations of cold versions of the tracers from 1 to 1000 nM (See SI Figure S2). The experiment was performed in quadruplicate for each concentration. Further procedures followed the same already described in Section 4.2.3.1.

[2] = biological target: T1, tau fibrils; assay: Competition binding assay against [^3H]PiB, tau fibrils
Procedure: as §1, with “Fixed concentrations (125 nM) of Aβ1−42, tau aggregates, and [^3H]DCVJ (10 nM and 20 nM for the Aβ1−42 and tau competition experiments respectively) were used with different concentrations of cold versions of the tracers from 1 to 1000 nM (See SI Figure S2). The experiment was performed in quadruplicate for each concentration.” left out, “4.2.3.1 (See SI Figure S4).” for “4.2.3.1.”

[3] = Solubility in the incubation medium of the binding assays; assay type: physicochemical; conditions: incubation buffer of the binding assays
[4] = biological target: T2, recombinant α-syn fibrils (Homo sapiens, UniProt P37840); assay: Competition binding assay against [^3H]PiB, α-syn fibrils; conditions: for Selectivity Aβ/α-syn / Selectivity tau/α-syn: ratio of Ki, [^3H]PiB was used
T2 construct: made in house

T1 sequence (P10636 2-758): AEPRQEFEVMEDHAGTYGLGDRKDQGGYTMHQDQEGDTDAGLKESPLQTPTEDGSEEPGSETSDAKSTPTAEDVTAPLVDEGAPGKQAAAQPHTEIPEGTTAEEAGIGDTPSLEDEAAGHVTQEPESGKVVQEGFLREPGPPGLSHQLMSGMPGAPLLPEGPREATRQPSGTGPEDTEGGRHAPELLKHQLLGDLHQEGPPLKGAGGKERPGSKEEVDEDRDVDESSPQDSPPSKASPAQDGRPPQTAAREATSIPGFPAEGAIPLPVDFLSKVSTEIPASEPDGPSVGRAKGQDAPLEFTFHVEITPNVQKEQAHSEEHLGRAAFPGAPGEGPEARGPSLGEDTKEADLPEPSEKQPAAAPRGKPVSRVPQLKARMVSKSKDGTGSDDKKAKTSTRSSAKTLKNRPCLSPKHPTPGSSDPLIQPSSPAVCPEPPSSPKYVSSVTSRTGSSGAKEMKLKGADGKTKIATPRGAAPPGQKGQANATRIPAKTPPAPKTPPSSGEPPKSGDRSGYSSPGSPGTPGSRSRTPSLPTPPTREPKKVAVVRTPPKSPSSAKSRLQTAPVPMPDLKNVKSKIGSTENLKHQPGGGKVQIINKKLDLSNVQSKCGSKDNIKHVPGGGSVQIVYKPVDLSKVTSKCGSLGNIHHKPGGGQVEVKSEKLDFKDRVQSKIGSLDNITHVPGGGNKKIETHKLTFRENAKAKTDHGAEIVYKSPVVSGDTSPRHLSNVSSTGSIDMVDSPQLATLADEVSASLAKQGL

| Ki [1] [nM] | Ki [2] [nM] | solubility in the incubation medium [3] | Ki [4] [nM] | Selectivity Aβ/α-syn [4] | Selectivity tau/α-syn [4] | Compound |
| --- | --- | --- | --- | --- | --- | --- |
| > 1000 | 434 | decreased solubility | 4.75 | 45.1 | 91.5 | Fc1ncc(-c2csc(-c3nc(-c4cnc5c(c4)OCO5)cs3)n2)cn1 [d10] |
| 465 | 766 |  | 1.51 | 122.6 | 507.5 | FCCOc1cnc(-c2csc(-c3nc(-c4cnc5c(c4)OCO5)cs3)n2)nc1 [f4, 6-(4′-(5-(2-Fluoroethoxy)pyrimidin-2-yl)-[2,2′-bithiazol]-4-yl)-[1,3]dioxolo[4,5-b]pyridine] |
| 515 | 516 |  | 2.88 | 53.8 | 179.2 | FCCOc1cnc(-c2csc(-c3nc(-c4ccc5c(c4)OCO5)cs3)n2)nc1 [f5, 4-(Benzo[d][1,3]dioxol-5-yl)-4′-(5-(2-fluoroethoxy)pyrimidin-2-yl)-2,2′-bithiazole] |
| 437 | 362 |  | 4.89 | 19.8 | 74.1 | FCCOCCOc1cnc(-c2csc(-c3nc(-c4ccc5c(c4)OCO5)cs3)n2)nc1 [f6, 4-(Benzo[d][1,3]dioxol-5-yl)-4′-(5-(2-(2-fluoroethoxy)ethoxy)pyrimidin-2-yl)-2,2′-bithiazole] |
